Values after ≈ are worked out from the molar mass of the structure shown. Read-outs that look alike come from different tables or passages of the source.
Key:
[1] = Solubility of genistein in different vehicles (shake flask, HPLC); assay type: physicochemical
Method: An excess amount of genistein was added to 1 mL each of the vehicles, including receptor buffer and oils, into a 1.5-mL Eppendorf, which was placed on a reciproacting shaker (Shaking Bath, Model B601D, Firstek Co., Ltd., Taipei, Taiwan) and shaken for more than 24 h at room temperature. Then each smaple was centrifuged at 12,000 rpm for 10 min. The drug concentration in supernatant was analyzed by HPLC.
Hitachi HPLC system (Hitachi, Tokyo, Japan), including model L-7100 pump, L-5210 autosampler, model L-4000H detector, and Merck Lichrocart® 100 RP 18 column (250 mm × 4 mm, 5 μm), was used. The mobile phase was composed of methanol and 0.05% phosphoric acid aqueous solution at ratios of 80/20 v/v. The flow rate and detection wavelength were at 1.0 mL/min and 230 nm, respectively. Diazepam solution was used as internal standard. The analytical method was successfully validated for linearity (1.0~100.0 μg/mL), with a determination coefficient (R^2) of 0.9997, precision of coefficient of variation (CV, %) of 4.16%, and accuracy of relative error (RE, %) of 5.71%. The limit of quantitation was 0.5 µg/mL.

[2] = set-up: method as in PMID 20190449; conditions: at 25 °C; cited from earlier work
Salmonella typhimurium = tested on: Salmonella typhimurium; set-up: method as in PMID 16198038, PMID 9748575, PMID 2548712; conditions: cited from earlier work
mice = tested on: mice; set-up: method as in PMID 16198038, PMID 9748575, PMID 2548712; conditions: cited from earlier work
rats = tested on: rats; set-up: method as in PMID 16198038, PMID 9748575, PMID 2548712; conditions: cited from earlier work
[3] = In vivo pharmacokinetic determination; conditions: 20 mg/kg; for Cmax / Tmax / half-life / AUC: male, Sprague-Dawley, rat, in vivo; for AUC: AUC0→ꝏ
Method: Rats were divided into two groups, i.e., tranderaml (test) group and oral (control) group, each of three. Rats were anesthetized by 10% chloral hydrate (dosing 0.3 mL/100 g) for intraperitoneal injection. After being anesthetized, hairs on the abdominal skin were removed by an electric shaver. Then, a glass ring with a diameter of 3 cm was fixed on the skin by a quick-drying glue. The applied dose of 20 mg/kg of the tested microemulsion formulation was placed inside the glass ring. […] Blood samples of approximately 0.6 mL were collected from the jugular vein and placed into a 1.5-mL Eppendorf at predetermined time intervals after transdermal administration. Then, the blood sample was centrifuged at 12,000 rpm for 10 min. The plasma samples were stored at −20 °C until analysis. Three to six replicates were conducted for each formulation.
Sample preparation [49, 53, 54]: A 100 μL of plasma samples was incubated with 100 μL of the sulfatase (approximately 200 unit) at 37 ± 0.5 °C for 5 h. Then, 100 µL Nicotine 4 µg/mL was used as internal standard added to the sample, then vortexed for 10 s. A total of 1 mL tert-methyl butyl ether was added for extract solution and vortexed for 10 min and then centrifuged at 10,000 rpm for 10 min. The supernatant of 800 µL was transferred to Eppendorf and evaporated to dryness in the vacuum oven (EYELA CVE-3000, Tokyo, Japan) for 1 h and 40 °C. The residue was reconstituted with 100 µL methanol and analyzed.
The pharmacokinetic analysis includes the following quantities: area under the curve (AUC), maximum plasma concentration (Cmax), the time needed to reach the maximum plasma concentration (Tmax), and the half-life (t1/2) of the drug. All values are presented as the mean ± standard deviation (SD). All data were processed using Phoenix WinNonlin 6.3 (Pharsight Corporation, Sunnyvale, CA, USA) to construct pharmacokinetic profiles. Data were analyzed by using the ANOVA test to evaluate the differences between the groups, and values of p < 0.05 indicated significant differences compared with control.

## O=c1c(-c2ccc(O)cc2)coc2cc(O)cc(O)c12 [genistein, 4′,5,7-trihydroxyisoflavone]
[1]; co-surfactant
  Increase of solubility in co-surfactant vs distilled water: > 8415 fold
[1]; in Distilled water, room temperature, read-out: Solubility
  solubility: ~0.01 mg/mL (≈ 0.037 mM)
[1]; microemulsion with PEG 400 concentration 0, read-out: Solubility in microemulsion
  solubility: 11.1 mg/mL (≈ 41 mM)
[1]; microemulsion with PEG 400 concentration 20%, read-out: Solubility in microemulsion
  solubility: 32 mg/mL (≈ 118 mM)
[1]; oil
  Increase of solubility in oil vs distilled water: more than 13 fold
[1]; oil or lipid, thermodynamic from solid, in Capryol 90, room temperature, read-out: Solubility
  solubility: 5.2 ± 0.23 mg/mL (≈ 19.2 mM)
[1]; oil or lipid, thermodynamic from solid, in Oleic acid, room temperature, read-out: Solubility
  solubility: 0.13 ± 0.02 mg/mL (≈ 0.481 mM)
[1]; oil or lipid, thermodynamic from solid, in Peceol, room temperature, read-out: Solubility
  solubility: 0.36 ± 0.01 mg/mL (≈ 1.33 mM)
[1]; organic solvent or mixture, thermodynamic from solid, in PEG 400, room temperature, read-out: Solubility
  solubility: 84.2 ± 5.61 mg/mL (≈ 311 mM)
[1]; organic solvent or mixture, thermodynamic from solid, in Transcutol HP, room temperature, read-out: Solubility
  solubility: 94.7 ± 3.92 mg/mL (≈ 350 mM)
[1]; surfactant
  Increase of solubility in surfactant vs distilled water: > 1903 fold
[1]; thermodynamic from solid, in Brij 30, room temperature, read-out: Solubility
  solubility: 27.7 ± 1.8 mg/mL (≈ 103 mM)
[1]; thermodynamic from solid, in Cremophor EL, room temperature, read-out: Solubility
  solubility: 19.4 ± 6.15 mg/mL (≈ 71.9 mM)
[1]; thermodynamic from solid, in Labrasol, room temperature, read-out: Solubility
  solubility: 55.5 ± 3.56 mg/mL (≈ 205 mM)
[1]; thermodynamic from solid, in Tween 80, room temperature, read-out: Solubility
  solubility: 19 ± 1.37 mg/mL (≈ 70.4 mM)
[1]; water, thermodynamic from solid, in Distilled water, room temperature, read-out: Solubility
  solubility: 0.01 mg/mL (≈ 0.037 mM)
[2]
  solubility in water: 5.3 µM (≈ 1.43 µg/mL)
Salmonella typhimurium
  Mutagenicity: not mutagenic
mice
  Mutagenicity and teratogenicity: not mutagenic or teratogenic
rats
  Mutagenicity and teratogenicity: not mutagenic or teratogenic
[3]; po
  Cmax: 3.12 ± 1.8 µg/mL
  Tmax: 3.67 ± 0.43 h
  half-life: 6.52 ± 1.24 h
[3]; po, rats, aqueous suspension, n = 3
  AUC: 33.9 ± 4.76 µg·h/mL
[3]; topical or ocular
  Cmax: 9.12 ± 0.57 µg/mL
  Tmax: 7.26 ± 1.11 h
  half-life: 19.3 ± 5.05 h
[3]; topical or ocular, rats, transdermal, microemulsion, n = 3
  AUC: 329 ± 50 µg·h/mL
[3]; rats, oral, aqueous suspension, n = 3
  AUC0→ꝏ: 33.91 ± 4.76 µg·h/mL

From publication PMC8703605, “Enhancement of the Topical Bioavailability and Skin Whitening Effect of Genistein by Using Microemulsions as Drug Delivery Carriers” (Pharmaceuticals, 2021)
